# Experimental data: PubChem BioAssay (NCI)
#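 Following 48 hours of exposure in 96-well plates, responses at five concentrations were used to interpolate endpoints linearly. GI50 is the concentration that inhibits growth by half. TGI: total growth inhibition.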
# Key:
# Test in all cases: NCI-60 cell line screen, 48 h
# NCI-H226 lung = tested on: NCI-H226 lung
# NCI-H23 lung = tested on: NCI-H23 lung
# NCI-H522 lung = tested on: NCI-H522 lung
# NCI/ADR-RES ovarian = tested on: NCI/ADR-RES ovarian
# OVCAR-4 ovarian = tested on: OVCAR-4 ovarian
# OVCAR-5 ovarian = tested on: OVCAR-5 ovarian
# OVCAR-8 ovarian = tested on: OVCAR-8 ovarian
# PC-3 prostate = tested on: PC-3 prostate
# RPMI-8226 leukemia = tested on: RPMI-8226 leukemia
# RXF 393 renal = tested on: RXF 393 renal
# SF-268 CNS = tested on: SF-268 CNS
# SF-295 CNS = tested on: SF-295 CNS
# SF-539 CNS = tested on: SF-539 CNS
# SK-MEL-2 melanoma = tested on: SK-MEL-2 melanoma
# SK-MEL-28 melanoma = tested on: SK-MEL-28 melanoma
# SK-MEL-5 melanoma = tested on: SK-MEL-5 melanoma
# SK-OV-3 ovarian = tested on: SK-OV-3 ovarian
# SN12C renal = tested on: SN12C renal
# SNB-19 CNS = tested on: SNB-19 CNS
# SNB-75 CNS = tested on: SNB-75 CNS
# SR leukemia = tested on: SR leukemia
# SW-620 colon = tested on: SW-620 colon
# T-47D breast = tested on: T-47D breast
# TK-10 renal = tested on: TK-10 renal
# U251 CNS = tested on: U251 CNS
# UACC-257 melanoma = tested on: UACC-257 melanoma
# UACC-62 melanoma = tested on: UACC-62 melanoma
# UO-31 renal = tested on: UO-31 renal
compound,measurement,setting,value
Cc1ccc(-c2nnc(SCc3ccc(O)c4ncccc34)o2)cc1,TGI,NCI-H226 lung,> 100000 nM
same,GI50,NCI-H23 lung,1470 nM
same,TGI,NCI-H23 lung,13000 nM
same,GI50,NCI-H522 lung,2290 nM
same,TGI,NCI-H522 lung,> 100000 nM
same,GI50,NCI/ADR-RES ovarian,706 nM
same,TGI,NCI/ADR-RES ovarian,7020 nM
same,GI50,OVCAR-4 ovarian,2450 nM
same,TGI,OVCAR-4 ovarian,> 100000 nM
same,GI50,OVCAR-5 ovarian,4820 nM
same,TGI,OVCAR-5 ovarian,> 100000 nM
same,GI50,OVCAR-8 ovarian,850 nM
same,TGI,OVCAR-8 ovarian,> 100000 nM
same,GI50,PC-3 prostate,457 nM
same,TGI,PC-3 prostate,> 100000 nM
same,GI50,RPMI-8226 leukemia,648 nM
same,TGI,RPMI-8226 leukemia,> 100000 nM
same,GI50,RXF 393 renal,1120 nM
same,TGI,RXF 393 renal,32200 nM
same,GI50,SF-268 CNS,503 nM
same,TGI,SF-268 CNS,> 100000 nM
same,GI50,SF-295 CNS,1020 nM
same,TGI,SF-295 CNS,5780 nM
same,GI50,SF-539 CNS,561 nM
same,TGI,SF-539 CNS,5920 nM
same,GI50,SK-MEL-2 melanoma,2240 nM
same,TGI,SK-MEL-2 melanoma,39400 nM
same,GI50,SK-MEL-28 melanoma,1040 nM
same,TGI,SK-MEL-28 melanoma,> 100000 nM
same,GI50,SK-MEL-5 melanoma,844 nM
same,TGI,SK-MEL-5 melanoma,6950 nM
same,GI50,SK-OV-3 ovarian,1980 nM
same,TGI,SK-OV-3 ovarian,6900 nM
same,GI50,SN12C renal,966 nM
same,TGI,SN12C renal,> 100000 nM
same,GI50,SNB-19 CNS,513 nM
same,TGI,SNB-19 CNS,14300 nM
same,GI50,SNB-75 CNS,283 nM
same,TGI,SNB-75 CNS,3930 nM
same,GI50,SR leukemia,568 nM
same,TGI,SR leukemia,42700 nM
same,GI50,SW-620 colon,1060 nM
same,TGI,SW-620 colon,> 100000 nM
same,GI50,T-47D breast,1830 nM
same,TGI,T-47D breast,7400 nM
same,GI50,TK-10 renal,1280 nM
same,TGI,TK-10 renal,9240 nM
same,GI50,U251 CNS,444 nM
same,TGI,U251 CNS,> 100000 nM
same,GI50,UACC-257 melanoma,2330 nM
same,TGI,UACC-257 melanoma,9300 nM
same,GI50,UACC-62 melanoma,1760 nM
same,TGI,UACC-62 melanoma,4740 nM
same,GI50,UO-31 renal,567 nM
same,TGI,UO-31 renal,3240 nM
